For eight compounds, IC50 results are on record in BindingDB's records for doi:10.1016/s0960-894x(01)00378-x (The R. W. Johnson Pharmaceutical Research Institute, 2001).

The structures appear in SMILES notation.

A short description of experiment [1]: In vitro inhibition of human platelet aggregation induced by alpha-thrombin (at a concentration of 0.15 nM).
The target of experiment [2] is T1, Proteinase-activated receptor 1 (Homo sapiens, UniProt P25116).
T1 sequence (P25116 whole entry): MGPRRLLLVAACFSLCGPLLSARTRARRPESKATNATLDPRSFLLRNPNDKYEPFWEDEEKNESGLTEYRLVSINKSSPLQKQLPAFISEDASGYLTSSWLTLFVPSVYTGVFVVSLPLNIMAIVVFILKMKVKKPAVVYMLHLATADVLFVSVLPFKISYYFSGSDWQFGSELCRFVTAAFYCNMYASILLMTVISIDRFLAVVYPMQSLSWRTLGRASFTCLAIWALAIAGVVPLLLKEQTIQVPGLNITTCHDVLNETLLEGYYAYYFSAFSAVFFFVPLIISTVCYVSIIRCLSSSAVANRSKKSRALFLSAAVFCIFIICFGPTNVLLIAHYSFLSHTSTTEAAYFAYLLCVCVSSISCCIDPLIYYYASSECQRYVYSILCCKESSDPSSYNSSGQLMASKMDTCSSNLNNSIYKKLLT
As to the kind of experiment: In vitro inhibition of human platelet aggregation induced by SFLLRN-NH2 (at a concentration of 2 uM).

A short description of experiment [3]: In vitro inhibition of human platelet aggregation induced by SFLLRN-NH2 (at a concentration of 2 uM).
The target in experiment [4] is T1, Proteinase-activated receptor 1. Description: In vitro inhibition of human platelet aggregation induced by alpha-thrombin (at a concentration of 0.15 nM).

A word on the IC50: it is the point on the concentration scale where inhibition reaches its midpoint. Higher therefore signals a need for much substance. `COC(=O)c1ccc(Cn2cc(CN3CCCC3)c3ccc(NC(=O)N[C@@H](Cc4ccc(OC)cc4)C(=O)N[C@@H](CCCNC(=N)N)C(=O)NCC4CCCCC4)cc32)cc1` [4-(6-{3-[(S)-1-[(S)-1-(Cyclohexylmethyl-carbamoyl)-4-guanidino-butylcarbamoyl]-2-(4-methoxy-phenyl)-ethyl]-ureido}-3-pyrrolidin-1-ylmethyl-indol-1-ylmethyl)-benzoic acid methyl ester] registered an IC50 in experiment [1] of 38700 nM. For `Cc1ccccc1Cn1cc(CN2CCCC2)c2ccc(NC(=O)NC(Cc3ccc([N+](=O)[O-])cc3)C(=O)NC(CCCNC(=N)N)C(=O)NCc3ccccc3)cc21` [(S)-5-Guanidino-2-[(S)-2-{3-[1-(2-methyl-benzyl)-3-pyrrolidin-1-ylmethyl-1H-indol-6-yl]-ureido}-3-(4-nitro-phenyl)-propionylamino]-pentanoic acid benzylamide], in experiment [2], the IC50 worked out at 150 nM.

`CCN(CC)Cc1cn(Cc2ccccc2C)c2cc(NC(=O)N[C@@H](Cc3ccc(OC)cc3)C(=O)N[C@@H](CCCNC(=N)N)C(=O)NCCCc3ccccc3)ccc12` [(S)-2-[(S)-2-{3-[3-Diethylaminomethyl-1-(2-methyl-benzyl)-1H-indol-6-yl]-ureido}-3-(4-methoxy-phenyl)-propionylamino]-5-guanidino-pentanoic acid (3-phenyl-propyl)-amide]: the IC50 in experiment [3] stood at 230 nM; in experiment [1] it was 3000 nM.

Take `O=C(Nc1ccc2c(CN3CCCC3)cn(Cc3c(Cl)cccc3Cl)c2c1)N[C@@H](Cc1ccc(F)c(F)c1)C(=O)NC(Cc1cnc[nH]1)C(=O)NCc1ccccc1` (stereo partly drawn) [(S)-N-[1-Benzylcarbamoyl-2-(3H-imidazol-4-yl)-ethyl]-2-{3-[1-(2,6-dichloro-benzyl)-3-pyrrolidin-1-ylmethyl-1H-indol-6-yl]-ureido}-3-(3,4-difluoro-phenyl)-propionamide]: the IC50 was 200 nM in experiment [3] and 460 nM in experiment [1].

Regarding `NC(N)=NCCCC(NC(=O)C(Cc1ccc([N+](=O)[O-])cc1)NC(=O)Nc1ccc2c(CN3CCCC3)cn(Cc3ccc(F)cc3)c2c1)C(=O)NCc1ccccc1` [(S)-2-[(S)-2-{3-[1-(4-Fluoro-benzyl)-3-pyrrolidin-1-ylmethyl-1H-indol-6-yl]-ureido}-3-(4-nitro-phenyl)-propionylamino]-5-guanidino-pentanoic acid benzylamide], the half-maximal inhibitory concentration (IC50) stood at 130 nM in experiment [2] and 6100 nM in experiment [4].

For the compound `NCCCC[C@H](NC(=O)[C@H](Cc1ccc(F)c(F)c1)NC(=O)Nc1ccc2c(CN3CCCC3)cn(Cc3c(Cl)cccc3Cl)c2c1)C(=O)NCc1ccccc1` [(S)-6-Amino-2-[(S)-2-{3-[1-(2,6-dichloro-benzyl)-3-pyrrolidin-1-ylmethyl-1H-indol-6-yl]-ureido}-3-(3,4-difluoro-phenyl)-propionylamino]-hexanoic acid benzylamide], the half-maximal inhibitory concentration (IC50) was determined as 100 nM in experiment [3] and 700 nM in experiment [1]. The compound `COc1ccc(C[C@H](NC(=O)Nc2ccc3c(CN4CCCC4)cn(Cc4c(Cl)cccc4Cl)c3c2)C(=O)N[C@@H](CCCN=C(N)N)C(=O)NCc2ccccc2)cc1` [RWJ-54003] gave an IC50 in experiment [4] of 900 nM. Turning to `N=C(N)NCCC[C@H](NC(=O)[C@H](Cc1ccc(F)c(F)c1)NC(=O)Nc1ccc2c(CN3CCCC3)cn(Cc3c(Cl)cccc3Cl)c2c1)C(=O)NCc1ccccc1` [(S)-2-[(S)-2-{3-[1-(2,6-Dichloro-benzyl)-3-pyrrolidin-1-ylmethyl-1H-indol-6-yl]-ureido}-3-(3,4-difluoro-phenyl)-propionylamino]-5-guanidino-pentanoic acid benzylamide], the IC50 in experiment [1] is 570 nM.
